From patent publication US20250230138A1, “COMPOUNDS HAVING A T-STRUCTURE FORMED BY AT LEAST FOUR CYCLES FOR USE IN THE TREATMENT OF CANCER AND OTHER INDICATIONS” (TheRas, Inc., priority 2022, published 2025)
Read-outs that look alike come from different tables or passages of the source.

How the values were obtained:
[1] = biological target: Cys242 in human PIK3CA (157-299) (Homo sapiens (Human), UniProt P42336); test: Covalent modification assay using MALDI-TOF MS; type: biochemical; conditions: 4 h reaction time point; 3.33 μM protein target, 1:7.5 protein to compound ratio (compounds 1-852)
Cys242 in human PIK3CA (157-299), sequence (P42336 157-299): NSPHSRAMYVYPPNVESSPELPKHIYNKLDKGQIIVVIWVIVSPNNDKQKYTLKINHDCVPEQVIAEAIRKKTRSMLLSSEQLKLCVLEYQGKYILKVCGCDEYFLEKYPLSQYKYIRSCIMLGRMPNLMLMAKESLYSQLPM
Method in brief: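 PIK3CA (157-299) at 3.33 μM or 1 μM in 20 mM HEPES, 150 mM NaCl, 2 mM MgCl2, pH 7.3 was incubated with compound (from 10 mM DMSO stocks) in the dark at room temperature for 15 min, 30 min, 2 h or 4 h. Linear-mode MALDI-TOF peak heights gave percent modification.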

[2] = tested on: pAKT in Tet-on KRAS G12D HeLa cells; test: Cell-based pAKT HTRF assay in Tet-on KRAS G12D HeLa cells; conditions: read-out: pAKT inhibition IC50 in Tet-on KRAS G12D HeLa cells
Procedure: To determine the effectiveness of compounds in disrupting PIK3CA/KRAS signaling in cells, we implemented pAKT HTRF assay (Perkin-Elmer) in Tet-on KRAS G12D HeLa cells.
On Day 1, cells were seeded into 96-well plates at 2×10^4 cells/well in complete growth media (DMEM, 10% Tet-Screened FBS) supplemented with 200 ng/mL doxycycline.
On Day 2, cells were treated with compounds at 0.25% DMSO. The source plate was created with compounds diluted in media at 5-fold the final assay concentration. The compounds are run in a 9-point concentration curve starting at 75 μM, with a 3-fold dilution between concentrations. […] 20 μL was transferred onto the cell plates (final volume in wells was 100 μL). Plates were harvested after 30 min and 4 hr incubation by aspirating media and adding kit-supplied 1× supplemented lysis buffer to all wells (50 μL per well). This then changed to 4 hr only when compounds became covalent. Plates were then placed on a plate shaker and incubated at 850 rpm for an additional 30 min. The antibody mixture solution was prepared by diluting aliquoted d2 and Eu Cryptate antibodies 1:20 in kit supplied detection buffer, then mixed the diluted antibodies solutions (1:1 v:v). 4 μL of this solution was then added to a 384-well detection plate (Perkin Elmer; 6008230). Samples were homogenized by pipetting up and down and then transferred (16 μL of cell lysates) from the 96-well cell culture plate to two wells of the HTRF 384-well detection plate containing the antibody solution. Plates were centrifuged (524 g for 1 min) and allowed to incubate between 4 and 24 h at room temperature. The maximum signal is reached after 4 h incubation time and remains stable over a period of 24 hours. Therefore, readings can be made between 4 and 24 h of incubation. Plates were centrifuged again (524 g for 1 min), and analyzed on the EnVision plate reader using the following settings: Excitation 320 nm, Bandwidth […]; Emission 615 nm, Bandwidth […], Gain 100%, Flashes 100, Lag 60 μs.

| IC50 ([2]; Homo sapiens, HeLa) [µM] | IC50 ([2]; Tet-on KRAS G12D HeLa cells) [µM] | Structure (SMILES) | % of modification [1] |
| --- | --- | --- | --- |
| 1 to 10 | – | C=CC(=O)Nc1cccc(-c2nc(-c3ccc4c(c3)CCNC4)c3ccsc3c2-c2ccc(F)cc2OCCOC)c1 [Compound 12, N-[3-[7-[4-fluoro-2-(2-methoxyethoxy)phenyl]-4-(1,2,3,4-tetrahydroisoquinolin-6-yl)thieno[3,2-c]pyridin-6-yl]phenyl]prop-2-enamide] | A (percent of modification of PIK3CA protein ≥75%) |
| < 1 | – | C=CC(=O)N1CC(n2cc(-c3nc(-c4ccc5c(c4)CCNC5)c4ccsc4c3-c3ccc(F)cc3OCCOC)cn2)C1 [Compound 44, 1-[3-[4-[7-[4-fluoro-2-(2-methoxyethoxy)phenyl]-4-(1,2,3,4-tetrahydroisoquinolin-6-yl)thieno[3,2-c]pyridin-6-yl]pyrazol-1-yl]azetidin-1-yl]prop-2-en-1-one] | A (percent of modification of PIK3CA protein ≥75%) |
| – | – | C=CC(=O)N1CCc2nc(-c3nc(-c4ccc5c(c4)CCNC5)c4ccsc4c3-c3ccc(F)cc3OCCOC)sc2C1 [Compound 58, 1-[2-[7-[4-fluoro-2-(2-methoxyethoxy)phenyl]-4-(1,2,3,4-tetrahydroisoquinolin-6-yl)thieno[3,2-c]pyridin-6-yl]-6,7-dihydro-4H-thiazolo[5,4-c]pyridin-5-yl]prop-2-en-1-one] | A (percent of modification of PIK3CA protein ≥75%) |
| – | < 1 | C=CC(=O)N1CCCC(n2cc(-c3nc(-c4ccc5c(c4)CCNC5)c4ccsc4c3-c3ccc(F)cc3OCCOC)cn2)C1 (stereo not shown) [compound 31] | A (percent of modification of PIK3CA protein ≥75%) |
| – | < 1 | C=CC(=O)N1CCc2ccc(-c3nc(-c4ccc5c(c4)CCNC5)c4ccsc4c3-c3ccc(F)cc3OCCOC)cc2C1 [compound 42] | A (percent of modification of PIK3CA protein ≥75%) |
| – | < 1 | C=CC(=O)N1CC[C@H](n2cc(-c3nc(-c4ccc5c(c4)CCNC5)c4ccsc4c3-c3ccc(F)cc3OCCOC)cn2)C1 [compound 47] | A (percent of modification of PIK3CA protein ≥75%) |
| – | < 1 | C=CC(=O)Nc1cccc(-c2nc(-c3ccc4c(c3)CNC(=O)C4)c3ccsc3c2-c2ccc(F)cc2OCCOC)c1 [compound 51] | A (percent of modification of PIK3CA protein ≥75%) |
